Where two headings read alike, the source gives them in different places.
How the values were obtained:
[1] = humans; cited from earlier work
[2] = In vitro precipitation / solubilization of CFZ in aqueous media; assay type: physicochemical; conditions: ~5 M HCl, diprotonated state
[3] = Measurement of CFZ in tissues, partition ratios after prolonged oral dosing; assay type: in vivo, mice (male C57Bl6); conditions: mice, after eight week washout period
[4] = cited from earlier work
[5] = mice; cited from earlier work

## CC(C)/N=c1\cc2n(-c3ccc(Cl)cc3)c3ccccc3nc-2cc1Nc1ccc(Cl)cc1 [CFZ, Clofazimine]
[1]
  pharmacokinetic half-life t1/2: ~ 70 days
[2]
  pH at which CFZ was completely solubilized in aqueous media: < 1
[3]
  CFZ mass retained in spleen: exceeded its combined mass retained in the other organs
[4]; oral, after an acute dose
  half-life: hours to days
[4]; upon prolonged oral administration
  half-life: weeks to months
[5]
  pharmacokinetic half-life t1/2: 170 h
